PubChem BioAssay AID1963422 (Molecular Pharmacology Branch, DTP, NCI, 2024)

Tested on: 463943-066-T-J2-PDC complex spheroid growth
Assay: Anticancer human tumor 463943-066-T-J2-PDC patient-derived colon adenocarcinoma cell line growth inhibition [Asc]
Conditions: for IC50: curve of first compound; for viability, T/C: stronger effect = lower value
Procedure, shortened: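 Complex solid-tumor spheroids incorporating human endothelial and mesenchymal stem cells received single agents or combinations over half-log dilution ranges anchored to clinical Cmax.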

[1] = second compound 0.00949 µM, first compound 0.0316 µM
[2] = second compound 0.00949 µM, first compound 0.1 µM
[3] = second compound 0.00949 µM, first compound 0.316 µM
[4] = second compound 0.00949 µM, first compound 1 µM
[5] = second compound 0.03 µM, first compound 0.0316 µM
[6] = second compound 0.03 µM, first compound 0.1 µM
[7] = second compound 0.03 µM, first compound 0.316 µM
[8] = second compound 0.03 µM, first compound 1 µM
[9] = second compound 0.0949 µM, first compound 0.0316 µM
[10] = second compound 0.0949 µM, first compound 0.1 µM
[11] = second compound 0.0949 µM, first compound 0.316 µM
[12] = second compound 0.0949 µM, first compound 1 µM
[13] = second compound 0.3 µM, first compound 0.0316 µM
[14] = second compound 0.3 µM, first compound 0.1 µM
[15] = second compound 0.3 µM, first compound 0.316 µM
[16] = second compound 0.3 µM, first compound 1 µM
[17] = second compound 0.949 µM, first compound 0.0316 µM
[18] = second compound 0.949 µM, first compound 0.1 µM
[19] = second compound 0.949 µM, first compound 0.316 µM
[20] = second compound 0.949 µM, first compound 1 µM
[21] = second compound 3 µM, first compound 0.0316 µM
[22] = second compound 3 µM, first compound 0.1 µM
[23] = second compound 3 µM, first compound 0.316 µM
[24] = second compound 3 µM, first compound 1 µM
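Further: compound exposure lasted 7 days.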
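Wherever viability, T/C is given: 100% = DMSO vehicle control wells.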

Question: How did the IC50 (second compound 0.00949 µM) turn out when `C=C(F)C(=O)N1CCN(c2nc(OCC3CCCN3C)nc3c2CCN(c2cccc4cccc(Cl)c24)C3)CC1CC#N` (centres undefined) + CCN1C(C(=O)NC23CCC(C(=O)O)(CC2)CC3)C(c2cccc(Cl)c2F)C2(C(=O)Nc3cc(Cl)ccc32)C12CCCCC2 was run?
Answer: 6.05 µM

Question: And the IC50 (second compound 0.03 µM)?
Answer: 6.36 µM

Question: And the IC50 (second compound 0.0949 µM)?
Answer: 6.24 µM

Question: What about the IC50 (second compound 0.3 µM) of the same molecule?
Answer: 6.01 µM

Question: And the IC50 (second compound 0.949 µM)?
Answer: 6.26 µM

Question: What about the IC50 (second compound 3 µM) of the same molecule?
Answer: 5.8 µM

Question: What about the viability, T/C [1] of the same molecule?
Answer: 97.4%

Question: And the viability, T/C [2]?
Answer: 92.9%

Question: What about the viability, T/C [3] of the same molecule?
Answer: 103%

Question: And the viability, T/C [4]?
Answer: 104%

Question: And the viability, T/C (second compound 0.00949 µM, first compound 3.16 µM)?
Answer: 91.9%

Question: What about the viability, T/C (second compound 0.00949 µM, first compound 10 µM) of the same molecule?
Answer: 17.2%

Question: And the viability, T/C [5]?
Answer: 93.4%

Question: What about the viability, T/C [6] of the same molecule?
Answer: 93.9%

Question: What about the viability, T/C [7] of the same molecule?
Answer: 93.1%

Question: What about the viability, T/C [8] of the same molecule?
Answer: 101%

Question: And the viability, T/C (second compound 0.03 µM, first compound 3.16 µM)?
Answer: 97.3%

Question: What about the viability, T/C (second compound 0.03 µM, first compound 10 µM) of the same molecule?
Answer: 20.3%

Question: And the viability, T/C [9]?
Answer: 91.7%

Question: What about the viability, T/C [10] of the same molecule?
Answer: 87.3%

Question: What about the viability, T/C [11] of the same molecule?
Answer: 88.3%

Question: And the viability, T/C [12]?
Answer: 97.8%

Question: And the viability, T/C (second compound 0.0949 µM, first compound 3.16 µM)?
Answer: 87.3%

Question: What about the viability, T/C (second compound 0.0949 µM, first compound 10 µM) of the same molecule?
Answer: 23.9%

Question: What about the viability, T/C [13] of the same molecule?
Answer: 82%

Question: What about the viability, T/C [14] of the same molecule?
Answer: 85.4%

Question: What about the viability, T/C [15] of the same molecule?
Answer: 83.6%

Question: What about the viability, T/C [16] of the same molecule?
Answer: 90.5%

Question: What about the viability, T/C (second compound 0.3 µM, first compound 3.16 µM) of the same molecule?
Answer: 79.1%

Question: What about the viability, T/C (second compound 0.3 µM, first compound 10 µM) of the same molecule?
Answer: 26.3%

Question: And the viability, T/C [17]?
Answer: 71.9%

Question: What about the viability, T/C [18] of the same molecule?
Answer: 81%

Question: And the viability, T/C [19]?
Answer: 76%

Question: And the viability, T/C [20]?
Answer: 83.6%

Question: What about the viability, T/C (second compound 0.949 µM, first compound 3.16 µM) of the same molecule?
Answer: 78.1%

Question: What about the viability, T/C (second compound 0.949 µM, first compound 10 µM) of the same molecule?
Answer: 30.8%

Question: And the viability, T/C [21]?
Answer: 70.8%

Question: What about the viability, T/C [22] of the same molecule?
Answer: 71.5%

Question: And the viability, T/C [23]?
Answer: 74%

Question: What about the viability, T/C [24] of the same molecule?
Answer: 78.9%

Question: And the viability, T/C (second compound 3 µM, first compound 3.16 µM)?
Answer: 77.5%

Question: And the viability, T/C (second compound 3 µM, first compound 10 µM)?
Answer: 28%

Question: `O=C(c1ccc(F)c(F)c1Nc1ccc(I)cc1F)N1CC(O)([C@@H]2CCCCN2)C1` + CCN1C(C(=O)NC23CCC(C(=O)O)(CC2)CC3)C(c2cccc(Cl)c2F)C2(C(=O)Nc3cc(Cl)ccc32)C12CCCCC2 was tested. Which IC50 (second compound 0.00949 µM) did it give?
Answer: 0.188 µM

Question: What about the IC50 (second compound 0.03 µM) of the same molecule?
Answer: 0.133 µM

Question: What about the IC50 (second compound 0.0949 µM) of the same molecule?
Answer: 0.117 µM

Question: What about the IC50 (second compound 0.3 µM) of the same molecule?
Answer: 0.0706 µM

Question: What about the IC50 (second compound 0.949 µM) of the same molecule?
Answer: 0.0349 µM

Question: And the IC50 (second compound 3 µM)?
Answer: 0.0177 µM

Question: What about the viability, T/C (second compound 0.00949 µM, first compound 0.00316 µM) of the same molecule?
Answer: 86.3%

Question: And the viability, T/C (second compound 0.00949 µM, first compound 0.01 µM)?
Answer: 78.7%

Question: What about the viability, T/C [1] of the same molecule?
Answer: 74.2%

Question: And the viability, T/C [2]?
Answer: 63.5%

Question: What about the viability, T/C [3] of the same molecule?
Answer: 39.1%

Question: What about the viability, T/C [4] of the same molecule?
Answer: 27.9%

Question: What about the viability, T/C (second compound 0.03 µM, first compound 0.00316 µM) of the same molecule?
Answer: 93.5%

Question: What about the viability, T/C (second compound 0.03 µM, first compound 0.01 µM) of the same molecule?
Answer: 77.5%

Question: What about the viability, T/C [5] of the same molecule?
Answer: 63.7%

Question: What about the viability, T/C [6] of the same molecule?
Answer: 56.2%

Question: What about the viability, T/C [7] of the same molecule?
Answer: 40%

Question: And the viability, T/C [8]?
Answer: 29%

Question: And the viability, T/C (second compound 0.0949 µM, first compound 0.00316 µM)?
Answer: 84.5%

Question: What about the viability, T/C (second compound 0.0949 µM, first compound 0.01 µM) of the same molecule?
Answer: 74.7%

Question: And the viability, T/C [9]?
Answer: 65.7%

Question: And the viability, T/C [10]?
Answer: 50.8%

Question: What about the viability, T/C [11] of the same molecule?
Answer: 39.4%

Question: And the viability, T/C [12]?
Answer: 28.2%

Question: And the viability, T/C (second compound 0.3 µM, first compound 0.00316 µM)?
Answer: 79.5%

Question: What about the viability, T/C (second compound 0.3 µM, first compound 0.01 µM) of the same molecule?
Answer: 65.2%

Question: What about the viability, T/C [13] of the same molecule?
Answer: 54.9%

Question: What about the viability, T/C [14] of the same molecule?
Answer: 50.5%

Question: And the viability, T/C [15]?
Answer: 37.8%

Question: What about the viability, T/C [16] of the same molecule?
Answer: 29.6%

Question: And the viability, T/C (second compound 0.949 µM, first compound 0.00316 µM)?
Answer: 67.8%

Question: What about the viability, T/C (second compound 0.949 µM, first compound 0.01 µM) of the same molecule?
Answer: 60%

Question: And the viability, T/C [17]?
Answer: 48.3%

Question: And the viability, T/C [18]?
Answer: 44.1%

Question: And the viability, T/C [19]?
Answer: 39.5%

Question: What about the viability, T/C [20] of the same molecule?
Answer: 32.4%

Question: And the viability, T/C (second compound 3 µM, first compound 0.00316 µM)?
Answer: 65%

Question: What about the viability, T/C (second compound 3 µM, first compound 0.01 µM) of the same molecule?
Answer: 55.7%

Question: And the viability, T/C [21]?
Answer: 44.2%

Question: And the viability, T/C [22]?
Answer: 40.4%

Question: And the viability, T/C [23]?
Answer: 36.6%

Question: And the viability, T/C [24]?
Answer: 33.8%
